Our source for the toxic effects observed and safety factor values is patent publication US4515766A, “Labeled phosphonic acid compositions for investigations of in vivo deposits of calcium” (priority 1982, dated 1985).

One data set in a line: Toxic effects in rats. The format is in vivo. The conditions noted are these: 0.32 mg/300 gm. An excerpt:
(§1) Relative to a 70 kg person, this represents a safety factor of 74.7 and 112 respectively.

The nature of a further data set: Toxic effects in mice. The conditions noted are these: 0.032 mg/20 gm. The format is in vivo.
Text: as §1

Structures are written as SMILES.

On to `O=P(O)(O)C(O)(c1ccccc1)P(=O)(O)O` [.PHI.PA], for which the toxic effects observed result in the data set “Toxic effects in rats” and in “Toxic effects in mice” was “No toxic effects” in each case. Also, the safety factor in “Toxic effects in rats” (rat, in vivo, read-out: safety factor relative to a 70 kg person) stood at 74.7; in “Toxic effects in mice” (mouse, in vivo, read-out: safety factor relative to a 70 kg person), 112.
